In patent US10343992B2, “1-cyano-pyrrolidine compounds as USP30 inhibitors” (MISSION THERAPEUTICS LIMITED, priority 2015, dated 2019) one finds IC50 data, which are given here for 32 molecules.

As a reminder, the IC50 is the concentration needed to halve the response being measured.

Sequence of USP30 (Q70CQ3 57-517): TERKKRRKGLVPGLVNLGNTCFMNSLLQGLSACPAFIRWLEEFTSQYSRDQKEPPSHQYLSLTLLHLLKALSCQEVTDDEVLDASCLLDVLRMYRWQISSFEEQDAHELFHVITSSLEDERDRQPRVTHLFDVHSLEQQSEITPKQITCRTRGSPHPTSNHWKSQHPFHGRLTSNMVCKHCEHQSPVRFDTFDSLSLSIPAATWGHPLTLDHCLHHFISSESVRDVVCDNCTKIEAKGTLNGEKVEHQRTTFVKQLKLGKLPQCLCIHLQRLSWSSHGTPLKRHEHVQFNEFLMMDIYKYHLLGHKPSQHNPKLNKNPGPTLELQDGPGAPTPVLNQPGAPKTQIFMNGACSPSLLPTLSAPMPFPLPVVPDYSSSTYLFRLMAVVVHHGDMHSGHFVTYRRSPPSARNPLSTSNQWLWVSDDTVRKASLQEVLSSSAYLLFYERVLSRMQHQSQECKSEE

This experiment deals with USP30 (Homo sapiens (Human), UniProt Q70CQ3). Description: USP30 biochemical FP or FI IC50 assay. The conditions noted are these: read-out: IC50 range. The procedure:
USP30 Biochemical IC50 Assay
Dilution plates were prepared at 21 times the final concentration (2100 μM for a final concentration of 100 μM) in 50% DMSO in a 96-well polypropylene V-bottom plate (Greiner #651201). A typical 8-point dilution series would be 100, 30, 10, 3, 1, 0.3, 0.1, 0.03 μM final. Reactions were performed in duplicate in black 384 well plates (small volume, Greiner 784076) in a final reaction volume of 21 μl. Either 1 μl of 50% DMSO or diluted compound was added to the plate. USP30 was diluted in reaction buffer (40 mM Tris, pH 7.5, 0.005% Tween 20, 0.5 mg/ml BSA, 5 mM—beta-mercaptoethanol) to the equivalent of 0.05 μl/well and 10 μl of diluted USP30 was added to the compound. Enzyme and compound were incubated for 30 min at room temp. Reactions were initiated by the addition of 50 nM of TAMRA labelled peptide linked to ubiquitin via an iso-peptide bond as fluorescence polarisation substrate. Reactions were read immediately after addition of substrate and following a 2 hr incubation at room temperature. Readings were performed on a Pherastar Plus (BMG Labtech). λ Excitation 540 nm; λ Emission 590 nm.
USP30 Biochemical Fluorescence Intensity IC50 Assay
Dilution plates were prepared at 21 times the final concentration (2100 μM for a final concentration of 100 μM) in 50% DMSO in a 96-well polypropylene V-bottom plate (Greiner #651201). A typical 8-point dilution series would be 100, 30, 10, 3, 1, 0.3, 0.1, 0.03 μM final. Reactions were performed in duplicate in black 384 well plates (small volume, Greiner 784076) in a final reaction volume of 21 μl.
Either 1 μl of 50% DMSO or diluted compound was added to the plate. USP30 was diluted in reaction buffer (40 mM Tris, pH 7.5, 0.005% Tween 20, 0.5 mg/ml BSA, 5 mM—beta-mercaptoethanol) to the equivalent of 0.001 μl/well and 10 μl of diluted USP30 was added to the compound. Enzyme and compound were incubated for 30 min at room temp. Reactions were initiated by the addition of Ubiquitin-Rhodamine 110 (U-555; Boston Biochem) at a final concentration of 100 nM. Reactions were read immediately after addition of substrate and following a 2 h incubation at room temperature. Readings were performed on a Pherastar Plus (BMG Labtech). λ Excitation 487 nm; λ Emission 535 nm.
Turning to `N#CN1CCC(NC(=O)c2nc(-c3ccccc3)cs2)C1` (racemic) [Example 7, N-(1-cyanopyrrolidin-3-yl)-4-phenylthiazole-2-carboxamide], the concentration for half-maximal inhibition (IC50) is 100 to 1000 nM.
Under `N#CN1CCC(NC(=O)c2cc(-c3cccc(Cl)c3)no2)C1` (racemic) [Example 8, 3-(3-chlorophenyl)-N-(1-cyanopyrrolidin-3-yl)isoxazole-5-carboxamide] stands less than 100 nM.
Under `N#CN1CCC(NC(=O)c2cn(-c3ccccc3)cn2)C1` (racemic) [Example 9, N-(1-cyanopyrrolidin-3-yl)-1-phenyl-1H-imidazole-4-carboxamide] stands 100 to 1000 nM; under `N#CN1CCC(NC(=O)C2CC(=O)N(Cc3ccc(F)cc3F)C2)C1` (racemic) [Example 10, N-(1-cyanopyrrolidin-3-yl)-1-(2,4-difluorobenzyl)-5-oxopyrrolidine-3-carboxamide], 100 to 1000 nM.
With `Cc1noc(C)c1-c1ccc(C(=O)NC2CCN(C#N)C2)cc1` (racemic) [Example 12, N-(1-cyanopyrrolidin-3-yl)-4-(3,5-dimethylisoxazol-4-yl)benzamide] the figure was 100 to 1000 nM; with `N#CN1CCC(NC(=O)c2ccc(-c3cccc(Cl)c3)cc2)C1` (racemic) [Example 13, 3′-chloro-N-(1-cyanopyrrolidin-3-yl)-[1,1′-biphenyl]-4-carboxamide], less than 100 nM; with `COc1ccccc1-c1ccc(C(=O)NC2CCN(C#N)C2)cc1` (racemic) [Example 14, N-(1-cyanopyrrolidin-3-yl)-2′-methoxy-[1,1′-biphenyl]-4-carboxamide], less than 100 nM.
`N#CN1CCC(NC(=O)c2ccc(Oc3ccccc3)cc2)C1` (racemic) [Example 15, N-(1-cyanopyrrolidin-3-yl)-4-phenoxybenzamide]: the half-inhibitory concentration (IC50) was in the range of 1000 to 10000 nM.
With `N#CN1CCC(NC(=O)Cc2ccc(-c3ccccc3)cc2)C1` (racemic) [Example 16, 2-([1,1′-biphenyl]-4-yl)-N-(1-cyanopyrrolidin-3-yl)acetamide] the figure was 1000 to 10000 nM.
As for `N#CN1CCC(NC(=O)c2cc(-c3ccccc3)nc3ccccc23)C1` (racemic) [Example 17, N-(1-cyanopyrrolidin-3-yl)-2-phenylquinoline-4-carboxamide], the half-inhibitory concentration (IC50) was 1000 to 10000 nM.
With `N#CN1CCC(NC(=O)c2ccc(N3CCC(C(N)=O)CC3)nc2)C1` (racemic) [Example 18, 6-(4-carbamoylpiperidin-1-yl)-N-(1-cyanopyrrolidin-3-yl)nicotinamide] the figure was 1000 to 10000 nM; with `N#CN1CCC(NC(=O)c2ccc(N3CCN(c4ccc(F)cc4F)CC3)nc2)C1` (racemic) [Example 19, N-(1-cyanopyrrolidin-3-yl)-6-(4-(2,4-difluorophenyl)piperazin-1-yl)nicotinamide], 100 to 1000 nM.
For the molecule `CCOC(=O)N1CCN(c2ccc(C(=O)NC3CCN(C#N)C3)cn2)CC1` (racemic) [Example 20, ethyl 4-(5-((1-cyanopyrrolidin-3-yl)carbamoyl)pyridin-2-yl)piperazine-1-carboxylate], the half-inhibitory concentration (IC50) fell in the range of 1000 to 10000 nM.
With `N#CN1CCC(NC(=O)c2ccc(N3CCCC3c3cccnc3)nc2)C1` (racemic) [Example 21, N-(1-cyanopyrrolidin-3-yl)-6-(2-(pyridin-3-yl)pyrrolidin-1-yl)nicotinamide] the figure was 1000 to 10000 nM.
Under `N#CN1CCC(NC(=O)c2ccc(N3CCC(c4ccncc4)CC3)nc2)C1` (racemic) [Example 23, N-(1-cyanopyrrolidin-3-yl)-6-(4-(pyridin-4-yl)piperidin-1-yl)nicotinamide] stands 100 to 1000 nM; under `N#CN1CCC(NC(=O)c2cccc(N3CCc4ccccc4C3)n2)C1` (racemic) [Example 25, N-(1-cyanopyrrolidin-3-yl)-6-(3,4-dihydroisoquinolin-2(1H)-yl)picolinamide], 1000 to 10000 nM.
With `N#CN1CCC(NC(=O)c2cccc(N3CCC(Oc4ccccc4)CC3)n2)C1` (racemic) [Example 26, N-(1-cyanopyrrolidin-3-yl)-6-(4-phenoxypiperidin-1-yl)picolinamide] the figure was 1000 to 10000 nM.
`CC(=O)N1CCCN(c2cc(C(=O)NC3CCN(C#N)C3)ccn2)CC1` (racemic) [Example 28, 2-(4-acetyl-1,4-diazepan-1-yl)-N-(1-cyanopyrrolidin-3-yl)isonicotinamide]: the IC50 was in the range of 1000 to 10000 nM.
With `N#CN1C[C@H]2CCN(C(=O)c3cccc(-c4ccccc4)c3)[C@H]2C1` (racemic) [Example 51, rac-(3aR,6aR)-1-([1,1′-biphenyl]-3-carbonyl)hexahydropyrrolo[3,4-b]pyrrole-5(1H)-carbonitrile] the figure was less than 100 nM; with `N#CN1C[C@H]2CCN(C(=O)c3cc(-c4ccccc4)n[nH]3)[C@H]2C1` (racemic) [Example 52, rac-(3aR,6aR)-1-(3-phenyl-1H-pyrazole-5-carbonyl)hexahydropyrrolo[3,4-b]pyrrole-5(1H)-carbonitrile], 100 to 1000 nM; with `N#CN1C[C@H]2CCN(C(=O)c3cc(-c4ccccc4)no3)[C@H]2C1` (racemic) [Example 53, rac-(3aR,6aR)-1-(3-phenylisoxazole-5-carbonyl)hexahydropyrrolo[3,4-b]pyrrole-5(1H)-carbonitrile], 100 to 1000 nM.
As to `N#CN1C[C@H]2CCN(C(=O)c3cn(-c4ccccc4)cn3)[C@H]2C1` (racemic) [Example 54, rac-(3aR,6aR)-1-(1-phenyl-1H-imidazole-4-carbonyl)hexahydropyrrolo[3,4-b]pyrrole-5(1H)-carbonitrile], the concentration for half-maximal inhibition (IC50) was 100 to 1000 nM.
Take `COc1ccc(-c2cc(C(=O)N3CC[C@@H]4CN(C#N)C[C@@H]43)[nH]n2)cc1` (racemic) [Example 55, rac-(3aR,6aR)-1-(3-(4-methoxyphenyl)-1H-pyrazole-5-carbonyl)hexahydropyrrolo[3,4-b]pyrrole-5(1H)-carbonitrile]: the IC50 was in the range of 100 to 1000 nM.
With `COc1ccc(-c2cc(C(=O)N3CC[C@@H]4CN(C#N)C[C@@H]43)on2)cc1` (racemic) [Example 56, rac-(3aR,6aR)-1-(3-(4-methoxyphenyl)isoxazole-5-carbonyl)hexahydropyrrolo[3,4-b]pyrrole-5(1H)-carbonitrile] the figure was 100 to 1000 nM; with `N#CN1C[C@H]2CCN(C(=O)c3ccc(F)c(-c4ccncc4)c3)[C@H]2C1` (racemic) [Example 57, rac-(3aR,6aR)-1-(4-fluoro-3-(pyridin-4-yl)benzoyl)hexahydropyrrolo[3,4-b]pyrrole-5(1H)-carbonitrile], 100 to 1000 nM.
On to `Cn1cc(-c2cc(C(=O)N3CC[C@@H]4CN(C#N)C[C@@H]43)ccc2F)cn1` (racemic) [Example 58, rac-(3aR,6aR)-1-(4-fluoro-3-(1-methyl-1H-pyrazol-4-yl)benzoyl)hexahydropyrrolo[3,4-b]pyrrole-5(1H)-carbonitrile], for which the IC50 was in the range of 100 to 1000 nM.
With `COc1cc(C(=O)N2CC[C@@H]3CN(C#N)C[C@@H]32)ccc1-c1ccncc1Cl` (racemic) [Example 59, rac-(3aR,6aR)-1-(4-(3-chloropyridin-4-yl)-3-methoxybenzoyl)hexahydropyrrolo[3,4-b]pyrrole-5(1H)-carbonitrile] the figure was 100 to 1000 nM; with `COc1cc(C(=O)N2CC[C@@H]3CN(C#N)C[C@@H]32)ccc1-c1cnn(C)c1` (racemic) [Example 60, rac-(3aR,6aR)-1-(3-methoxy-4-(1-methyl-1H-pyrazol-4-yl)benzoyl)hexahydropyrrolo[3,4-b]pyrrole-5(1H)-carbonitrile], 1000 to 10000 nM; with `CO[C@@H]1CCN(c2ccc(C(=O)N[C@H]3CN(C#N)C[C@@H]3C)c(F)c2)C1` (racemic) [Example 92, N-((trans)-1-cyano-4-methylpyrrolidin-3-yl)-2-fluoro-4-((R)-3-methoxypyrrolidin-1-yl)benzamide], 100 to 1000 nM.
Under `C[C@@H]1[C@H](NC(=O)c2ccc(-c3ccc(F)cc3)cn2)CCN1C#N` (racemic) [Example 174, N-((cis)-1-cyano-2-methylpyrrolidin-3-yl)-5-(4-fluorophenyl)picolinamide] stands 100 to 1000 nM.
Under `C[C@H]1CN(C#N)C[C@@H]1NC(=O)c1ccc(N2CCOCC2)c(Cl)c1` (racemic) [Example 175, 3-chloro-N-((trans)-1-cyano-4-methylpyrrolidin-3-yl)-4-morpholinobenzamide] stands less than 100 nM; under `N#CN1C[C@H](NC(=O)c2cnc(-c3ccccc3Cl)s2)[C@@H](O)C1` (relative stereo) [Example 93, 2-(2-chlorophenyl)-N-((trans)-1-cyano-4-hydroxypyrrolidin-3-yl) thiazole-5-carboxamide], less than 100 nM.
